The target in the experiment is T1, RORc ligand binding domain (Homo sapiens, UniProt P51449).
T1 sequence (P51449 269-508 limits assumed): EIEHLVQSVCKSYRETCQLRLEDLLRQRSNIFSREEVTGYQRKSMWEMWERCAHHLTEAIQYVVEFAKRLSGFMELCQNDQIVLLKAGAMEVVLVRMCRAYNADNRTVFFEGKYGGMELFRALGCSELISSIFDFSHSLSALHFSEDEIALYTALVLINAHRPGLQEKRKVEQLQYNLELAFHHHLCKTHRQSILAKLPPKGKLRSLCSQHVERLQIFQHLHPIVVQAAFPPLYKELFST
Kind of experiment: In Vitro RORc Ligand Binding Assay. Conditions: RORc IC50, radioligand 25-[3H]hydroxycholesterol 6 nM; 0.6 ug/mL RORc receptor; 3 h at 25° C.

Each structure is given as a SMILES string.

A word on the IC50: it is the point on the concentration scale where inhibition reaches its midpoint. A low value points to greater potency in that assay.

Take `CC1(C)[C@H]2CC[C@]1(c1cccc(C(=O)NCCO)n1)c1nnc(-c3c(F)cccc3F)cc12` [Example 56, 6-((5R,8S)-3-(2,6-difluorophenyl)-9,9-dimethyl-5,6,7,8-tetrahydro-5,8-methanocinnolin-8-yl)-N-(2-hydroxyethyl)picolinamide]: the IC50 was 35.5 nM.
As for `CC1(C)[C@H]2CC[C@]1(c1cccc(C(=O)N3CCS(=O)(=O)CC3)n1)c1nnc(-c3c(F)cccc3F)cc12` [Example 57, (6-((5R,8S)-3-(2,6-difluorophenyl)-9,9-dimethyl-5,6,7,8-tetrahydro-5,8-methanocinnolin-8-yl)pyridin-2-yl)(1,1-dioxidothiomorpholino)methanone], the figure is 71.1 nM; as for `CC1(C)[C@@H]2CC[C@@]1(c1cncc(C(N)=O)n1)c1nnc(-c3c(F)cccc3F)cc12` [Example 58, 6-((5S,8R)-3-(2,6-difluorophenyl)-9,9-dimethyl-5,6,7,8-tetrahydro-5,8-methanocinnolin-8-yl)pyrazine-2-carboxamide], 31.4 nM; as for `CC1(C)[C@@H]2CC[C@@]1(c1cccc(C#N)n1)c1nnc(-c3c(F)cccc3F)cc12` [Example 59, 6-((5S,8R)-3-(2,6-difluorophenyl)-9,9-dimethyl-5,6,7,8-tetrahydro-5,8-methanocinnolin-8-yl)picolinonitrile], 15.9 nM.
As for `CC1(C)[C@H]2CC[C@]1(c1cccc(C(=O)NC3COC3)n1)c1nnc(-c3c(F)cccc3F)cc12` [Example 60, 6-((5R,8S)-3-(2,6-difluorophenyl)-9,9-dimethyl-5,6,7,8-tetrahydro-5,8-methanocinnolin-8-yl)-N-(oxetan-3-yl)picolinamide], the figure is 13.6 nM; as for `C[C@H](O)CNC(=O)c1cccc([C@@]23CC[C@@H](c4cc(-c5c(F)cccc5F)nnc42)C3(C)C)n1` [Example 61, 6-((5R,8S)-3-(2,6-difluorophenyl)-9,9-dimethyl-5,6,7,8-tetrahydro-5,8-methanocinnolin-8-yl)-N-((S)-2-hydroxypropyl)picolinamide], 34.8 nM.
As for `C[C@@H](O)CNC(=O)c1cccc([C@@]23CC[C@@H](c4cc(-c5c(F)cccc5F)nnc42)C3(C)C)n1` [Example 62, 6-((5R,8S)-3-(2,6-difluorophenyl)-9,9-dimethyl-5,6,7,8-tetrahydro-5,8-methanocinnolin-8-yl)-N-((R)-2-hydroxypropyl)picolinamide], the figure is 28.8 nM; as for `CC(C)(O)CNC(=O)c1cccc([C@@]23CC[C@@H](c4cc(-c5c(F)cccc5F)nnc42)C3(C)C)n1` [Example 63, 6-((5R,8S)-3-(2,6-difluorophenyl)-9,9-dimethyl-5,6,7,8-tetrahydro-5,8-methanocinnolin-8-yl)-N-(2-hydroxy-2-methylpropyl)picolinamide], 53.1 nM.
The compound `CC1(C)[C@H]2CC[C@]1(c1cc(C(=O)NCCO)ccn1)c1nnc(-c3c(F)cccc3F)cc12` [Example 64] registered an IC50 of 95.4 nM.
In the case of `CC1(C)[C@H]2CC[C@]1(c1cc(C(=O)NC3COC3)ccn1)c1nnc(-c3c(F)cccc3F)cc12` [Example 65] it was 104 nM; in that of `Cc1nnc(-c2ccnc([C@@]34CC[C@@H](c5cc(-c6c(F)cccc6F)nnc53)C4(C)C)c2)o1` [Example 66], 161 nM.
In the case of `C[C@H](CO)NC(=O)c1ccnc([C@@]23CC[C@@H](c4cc(-c5c(F)cccc5F)nnc42)C3(C)C)c1` [Example 67] it was 276 nM; in that of `C[C@@H](CO)NC(=O)c1ccnc([C@@]23CC[C@@H](c4cc(-c5c(F)cccc5F)nnc42)C3(C)C)c1` [Example 68], 553 nM.
Regarding `CC1(C)[C@H]2CC[C@]1(c1cc(C(N)=O)ccn1)c1nnc(-c3c(F)cccc3F)cc12` [Example 69], the IC50 worked out at 26.4 nM.
As for `CNC(=O)c1ccnc([C@@]23CC[C@@H](c4cc(-c5c(F)cccc5F)nnc42)C3(C)C)c1` [Example 70], the figure is 50 nM; as for `CC1(C)[C@H]2CC[C@]1(c1cc(N)ccn1)c1nnc(-c3c(F)cccc3F)cc12` [Example 71], 1510 nM.
In the case of `CC1(C)[C@H]2CC[C@]1(c1cccc(N)n1)c1nnc(-c3c(F)cccc3F)cc12` [Example 72, 6-((5R,8S)-3-(2,6-difluorophenyl)-9,9-dimethyl-5,6,7,8-tetrahydro-5,8-methanocinnolin-8-yl)pyridin-2-amine] it was 2.6 nM.
In turn, `CC1(C)[C@@H]2CC[C@@]1(c1cncc(C(=O)NCCO)n1)c1nnc(-c3c(F)cccc3F)cc12` [Example 73, 6-((5S,8R)-3-(2,6-difluorophenyl)-9,9-dimethyl-5,6,7,8-tetrahydro-5,8-methanocinnolin-8-yl)-N-(2-hydroxyethyl)pyrazine-2-carboxamide] registered an IC50 of 32.4 nM.
`CC(=O)Nc1ccnc([C@@]23CC[C@@H](c4cc(-c5c(F)cccc5F)nnc42)C3(C)C)c1` [Example 74] had an IC50 of 118 nM.
In the case of `CC1(C)[C@H]2CC[C@]1(c1cc(-c3nnc(CO)o3)ccn1)c1nnc(-c3c(F)cccc3F)cc12` [Example 75] it was 167 nM; in that of `CN(C)C(=O)c1ccnc([C@@]23CC[C@@H](c4cc(-c5c(F)cccc5F)nnc42)C3(C)C)c1` [Example 76], 1470 nM.
As for `CC(C)(O)CNC(=O)c1ccnc([C@@]23CC[C@@H](c4cc(-c5c(F)cccc5F)nnc42)C3(C)C)c1` [Example 77], the figure is 139 nM.
As for `CC1(C)[C@H]2CC[C@]1(c1cc(NS(C)(=O)=O)ccn1)c1nnc(-c3c(F)cccc3F)cc12` [Example 78], the figure is 1190 nM; as for `CC1(C)[C@H]2CC[C@]1(c1cc(CO)ccn1)c1nnc(-c3c(F)cccc3F)cc12` [Example 79], 47.3 nM.
With `CC1(C)[C@H]2CC[C@]1(c1cccc(NS(C)(=O)=O)n1)c1nnc(-c3c(F)cccc3F)cc12` [Example 80, N-(6-((5R,8S)-3-(2,6-difluorophenyl)-9,9-dimethyl-5,6,7,8-tetrahydro-5,8-methanocinnolin-8-yl)pyridin-2-yl)methanesulfonamide], the IC50 came out at 11.2 nM.
In turn, `CC1(C)[C@H]2CC[C@]1(c1ccnc(C(=O)NCCO)n1)c1nnc(-c3c(F)cccc3F)cc12` [Example 81] registered an IC50 of 52.8 nM.
As for `CC1(C)[C@@H]2CC[C@@]1(c1cncc(C(=O)NC3COC3)n1)c1nnc(-c3c(F)cccc3F)cc12` [Example 82, 6-((5S,8R)-3-(2,6-difluorophenyl)-9,9-dimethyl-5,6,7,8-tetrahydro-5,8-methanocinnolin-8-yl)-N-(oxetan-3-yl)pyrazine-2-carboxamide], the figure is 129 nM; as for `CC1(C)[C@H]2CC[C@]1(c1cccc(C(=O)NCCS(C)(=O)=O)n1)c1nnc(-c3c(F)cccc3F)cc12` [Example 83, 6-((5R,8S)-3-(2,6-difluorophenyl)-9,9-dimethyl-5,6,7,8-tetrahydro-5,8-methanocinnolin-8-yl)-N-(2-(methylsulfonyl)ethyl)picolinamide], 13.3 nM; as for `CC1(C)[C@H]2CC[C@]1(c1cncc(-c3nnc(CO)o3)n1)c1nnc(-c3c(F)cccc3F)cc12` [Example 84, (5-(6-((5R,8S)-3-(2,6-difluorophenyl)-9,9-dimethyl-5,6,7,8-tetrahydro-5,8-methanocinnolin-8-yl)pyrazin-2-yl)-1,3,4-oxadiazol-2-yl)methanol], 26.3 nM.
In the case of `CC1(C)[C@H]2CC[C@]1(c1cncc(C(=O)NCCCO)n1)c1nnc(-c3c(F)cccc3F)cc12` [Example 85, 6-((5R,8S)-3-(2,6-difluorophenyl)-9,9-dimethyl-5,6,7,8-tetrahydro-5,8-methanocinnolin-8-yl)-N-(3-hydroxypropyl)pyrazine-2-carboxamide] it was 30.6 nM; in that of `CC(C)(O)CNC(=O)c1cncc([C@@]23CC[C@@H](c4cc(-c5c(F)cccc5F)nnc42)C3(C)C)n1` [Example 86, 6-((5R,8S)-3-(2,6-difluorophenyl)-9,9-dimethyl-5,6,7,8-tetrahydro-5,8-methanocinnolin-8-yl)-N-(2-hydroxy-2-methylpropyl)pyrazine-2-carboxamide], 45 nM; in that of `CC1(C)[C@H]2CC[C@]1(c1cncc(CO)n1)c1nnc(-c3c(F)cccc3F)cc12` [Example 87, (6-((5R,8S)-3-(2,6-difluorophenyl)-9,9-dimethyl-5,6,7,8-tetrahydro-5,8-methanocinnolin-8-yl)pyrazin-2-yl)methanol], 15.8 nM.
In the case of `Cc1cnc(-c2cncc([C@@]34CC[C@@H](c5cc(-c6c(F)cccc6F)nnc53)C4(C)C)n2)o1` [Example 88, 2-(6-((5R,8S)-3-(2,6-difluorophenyl)-9,9-dimethyl-5,6,7,8-tetrahydro-5,8-methanocinnolin-8-yl)pyrazin-2-yl)-5-methyloxazole] it was 5.4 nM; in that of `C[C@H](O)CNC(=O)c1cncc([C@]23CC[C@H](c4cc(-c5c(F)cccc5F)nnc42)C3(C)C)n1` [Example 89, 6-((5S,8R)-3-(2,6-difluorophenyl)-9,9-dimethyl-5,6,7,8-tetrahydro-5,8-methanocinnolin-8-yl)-N-((S)-2-hydroxypropyl)pyrazine-2-carboxamide], 12.8 nM.
The compound `CC1(C)[C@H]2CC[C@]1(c1cncc(C(=O)NCCC#N)n1)c1nnc(-c3c(F)cccc3F)cc12` [Example 90, N-(2-cyanoethyl)-6-((5R,8S)-3-(2,6-difluorophenyl)-9,9-dimethyl-5,6,7,8-tetrahydro-5,8-methanocinnolin-8-yl)pyrazine-2-carboxamide] registered an IC50 of 23 nM.
As for `CN(CCO)C(=O)c1cncc([C@@]23CC[C@@H](c4cc(-c5c(F)cccc5F)nnc42)C3(C)C)n1` [Example 91, 6-((5R,8S)-3-(2,6-difluorophenyl)-9,9-dimethyl-5,6,7,8-tetrahydro-5,8-methanocinnolin-8-yl)-N-(2-hydroxyethyl)-N-methylpyrazine-2-carboxamide], the figure is 40.8 nM.
